# Patent US20210170033A1, “NOVEL CONJUGATES OF A PHARMACEUTICAL AGENT AND A MOIETY CAPABLE OF BINDING TO A GLUCOSE SENSING PROTEIN” (SANOFI, priority 2017, published 2021)
# Where two headings read alike, the source gives them in different places.
# Key:
# [1] = tested on: A2780 Human Carcinoma Cells; assay: Glucose displacement assay (ATP measurement, CellTiter-Glo); assay type: cell-based; details: ATP measurement in A2780 cells, 0.5 μM rotenone
# Procedure: 2. Glucose Displacement Assay (ATP Measurement)
# 30,000 A2780 Human Carcinoma Cells are seeded per well in a Greiner 96-well plate. Cells are expanded and cultured in RPMI 1640 medium+GlutaMAX® with 10% FCS and 11 mM glucose, at 37° C. with 5% CO2. After 44 h, culture media is changed and washed once with PBS to starvation media consisting of RPMI 1640 medium with 1% FCS without glucose for 2 hours. Cells are then washed with KRB buffer, followed by incubation for 20 min at 37° C. of the treatment mix consisting of 60 μL KRB buffer/well and 10 μL of compound or DMSO 10×. 10 μl of rotenone is added to the mix to a final concentration of 0.5 μM. Cell plates are left for 2 min at room temperature. 20 μL of different glucose concentrations are added to the mix—typically 0.1 to 10 mM range—.
# Cells are incubated for another 15 min at 37° C., before measuring ATP with the CellTiter-Glo® Assay, under manufacturer's guidance, but without the equilibration step at room temperature for 30 min. In brief, 100 μl of Cell-Titer-Glo® Reagent is added to the wells containing already 100 μl of the previous reaction mix. Plates are mixed for 2 min at 800 rpm, followed by incubation at room temperature for 10 min to stabilize the luminescent signal. Luminescence is then recorded with the Tekan Ultra Evolution reader.
# A2780 cells = assay: Deoxy-glucose uptake assay in A2780 cells (14C 2-deoxy-D-glucose transport); assay type: cell-based; details: Homo sapiens, 20 min; inhibition of 14C 2-deoxy-D-glucose transport into A2780 cells; 20 min compound incubation; read-out: IC50
# Summary of the method: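 Radiolabelled 2-deoxy-D-glucose transport over 20 min was scintillation-counted in A2780 cells, grown 48 h, after 20 min compound exposure in KRB. Untreated cells gave the 100% reference, with Cytochalasin B defining background. IC50 values were regressed from triplicate means across 7 or 14 concentrations.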
# [2] = 1 mM glucose, read-out: IC50 [μM] at 1 mM glucose
# [3] = 10 mM glucose, read-out: IC50 [μM] at 10 mM glucose
Structure (SMILES),"IC50 [1, 2] [µM]","IC50 [1, 3] [µM]",IC50 (A2780 cells) [µM]
COc1cc(OCc2cccc(CNC(=O)CCCC(=O)OC(C)(C)C)c2)c(Cl)cc1C(=O)O[C@H]1[C@@H](OC)O[C@H](CO)[C@@H](O)[C@@H]1O [Example 373],6.44,26.7,4.1
COc1cc(OCc2cccc(OCCCCCC(=O)O)c2)c(Cl)cc1C(=O)O[C@H]1[C@@H](OC)O[C@H](CO)[C@@H](O)[C@@H]1O [Example 379],5.39,24.1,8.3
COc1cc(OCc2cccc(NC(=O)CCCCCCC(=O)OC(C)(C)C)c2)c(Cl)cc1C(=O)O[C@H]1[C@@H](OC)O[C@H](CO)[C@@H](O)[C@@H]1O [Example 402],3.24,7.35,0.3
COc1cc(OCc2cccc(NC(=O)CCCC(=O)O)c2)c(Cl)cc1C(=O)O[C@H]1[C@@H](OC)O[C@H](CO)[C@@H](O)[C@@H]1O [Example 407],16.3,> 33,8.6
COc1cc(OCc2cccc(NC(=O)CCCCCCC(=O)O)c2)c(Cl)cc1C(=O)O[C@H]1[C@@H](OC)O[C@H](CO)[C@@H](O)[C@@H]1O [Example 409],7.63,14.5,4.1
COC(=O)[C@H](CCCCNC(=O)CCCC(=O)Nc1cccc(COc2cc(OC)c(C(=O)O[C@H]3[C@@H](OC)O[C@H](CO)[C@@H](O)[C@@H]3O)cc2Cl)c1)NC(=O)OC(C)(C)C [Example 412],6.02,13.9,2.3
COC(=O)[C@H](CCCCNC(=O)CCCCCCC(=O)NCc1cccc(COc2cc(OC)c(C(=O)O[C@H]3[C@@H](OC)O[C@H](CO)[C@@H](O)[C@@H]3O)cc2Cl)c1)NC(=O)OC(C)(C)C [Example 413],10.3,30.9,5.1
COc1cc(OCc2cccc(CNC(=O)OC(C)(C)C)c2)c(Cl)cc1C(=O)N[C@H]1[C@H](OC)O[C@H](CO)[C@@H](O)[C@@H]1O [Example 419],4.39,11.6,1.1
COc1cc(OCc2cccc(CNC(=O)CCC(=O)OC(C)(C)C)c2)c(Cl)cc1C(=O)N[C@H]1[C@@H](OC)O[C@H](CO)[C@@H](O)[C@@H]1O [Example 424],9.79,25.4,3.3
COc1cc(OCc2cccc(CNC(=O)CCCC(=O)OC(C)(C)C)c2)c(Cl)cc1C(=O)N[C@H]1[C@@H](OC)O[C@H](CO)[C@@H](O)[C@@H]1O [Example 425],7.97,14.5,2.5
COc1cc(OCc2cccc(CNC(=O)CCCCCCC(=O)OC(C)(C)C)c2)c(Cl)cc1C(=O)N[C@H]1[C@@H](OC)O[C@H](CO)[C@@H](O)[C@@H]1O [Example 426],5.56,19.5,2.8
COc1cc(OCc2cccc(NC(=O)CCCCCCC(=O)OC(C)(C)C)c2)c(Cl)cc1C(=O)N[C@H]1[C@@H](OC)O[C@H](CO)[C@@H](O)[C@@H]1O [Example 430],3.9,7.8,1.7
COC(=O)[C@H](CCCCNC(=O)CCCCCCC(=O)NCc1cccc(COc2cc(OC)c(C(=O)N[C@H]3[C@@H](OC)O[C@H](CO)[C@@H](O)[C@@H]3O)cc2Cl)c1)NC(=O)OC(C)(C)C [Example 437],19.5,> 33,17.6
COC(=O)[C@H](CCCCNC(=O)CCCCCCCCC(=O)NCc1cccc(COc2cc(OC)c(C(=O)N[C@H]3[C@@H](OC)O[C@H](CO)[C@@H](O)[C@@H]3O)cc2Cl)c1)NC(=O)OC(C)(C)C [Example 438],13,> 33,13.8
COC(=O)[C@H](CCCCNC(=O)CCCC(=O)Nc1cccc(COc2cc(OC)c(C(=O)N[C@H]3[C@@H](OC)O[C@H](CO)[C@@H](O)[C@@H]3O)cc2Cl)c1)NC(=O)OC(C)(C)C [Example 440],18,> 33,7
COc1c(C(=O)N[C@H]2[C@@H](OC)O[C@H](CO)[C@@H](O)[C@@H]2O)cc(Cl)c(OCc2cccc(CNC(=O)OC(C)(C)C)c2)c1Cl [Example 444],4,8.4,1.6
COC(=O)[C@H](CCCCNC(=O)CCCCCNC(=O)CCCCCCC(=O)Nc1cccc(COc2cc(OC)c(C(=O)N[C@H]3[C@@H](OC)O[C@H](CO)[C@@H](O)[C@@H]3O)cc2Cl)c1)NC(=O)OC(C)(C)C [Example 471],3.4,8.6,0.8
COC(=O)[C@@H](CCCCNC(=O)CCCCCNC(=O)CCCCCCCCC(=O)Nc1cccc(COc2cc(OC)c(C(=O)N[C@H]3[C@@H](OC)O[C@H](CO)[C@@H](O)[C@@H]3O)cc2Cl)c1)NC(=O)OC(C)(C)C [Example 472],5.9,15.6,1.6

# Stronger by IC50 [1, 2], values ahead:
"IC50 [1, 2] [µM]","IC50 [1, 3] [µM]",IC50 (A2780 cells) [µM],Structure (SMILES)
3,11.4,2.7,COC(=O)[C@H](CCCCNC(=O)CCCCCCC(=O)Nc1cccc(COc2cc(OC)c(C(=O)N[C@H]3[C@@H](OC)O[C@H](CO)[C@@H](O)[C@@H]3O)cc2Cl)c1)NC(=O)OC(C)(C)C [Example 441]
2.95,7.81,0.6,COc1cc(OCc2cccc(CNC(=O)CCCCCCC(=O)OC(C)(C)C)c2)c(Cl)cc1C(=O)O[C@H]1[C@@H](OC)O[C@H](CO)[C@@H](O)[C@@H]1O [Example 401]
2.5,11.5,3.3,CO[C@H]1O[C@H](CO)[C@@H](O)[C@H](O)[C@H]1NC(=O)c1cc(Cl)c(OCc2cccc(CNC(=O)OC(C)(C)C)c2)c(Cl)c1C [Example 439]
2.4,3.3,1.7,COc1cc(OCc2nc3ccccc3n2CCCCCCCCCCCC(=O)O)c(Cl)cc1C(=O)N[C@H]1[C@@H](OC)O[C@H](CO)[C@@H](O)[C@@H]1O [Example 469]
2,8.9,6,CO[C@H]1O[C@H](CO)[C@@H](O)[C@H](O)[C@H]1NC(=O)c1cc(Cl)c(OCc2cccc(NC(=O)OC(C)(C)C)c2)c(Cl)c1C [Example 443]
1.6,5.2,1,COC(=O)[C@H](CCCCNC(=O)CCCCCCCCC(=O)Nc1cccc(COc2cc(OC)c(C(=O)N[C@H]3[C@@H](OC)O[C@H](CO)[C@@H](O)[C@@H]3O)cc2Cl)c1)NC(=O)OC(C)(C)C [Example 442]
1.41,7.19,1.6,COc1cc(OCc2cccc(NC(=O)CCC(=O)OC(C)(C)C)c2)c(Cl)cc1C(=O)O[C@H]1[C@@H](OC)O[C@H](CO)[C@@H](O)[C@@H]1O [Example 375]
1.34,7.83,2.4,COC(=O)[C@H](CCC(=O)Nc1cccc(COc2cc(OC)c(C(=O)O[C@H]3[C@@H](OC)O[C@H](CO)[C@@H](O)[C@@H]3O)cc2Cl)c1)NC(=O)OC(C)(C)C [Example 377]
1.02,3.73,0.8,COc1cc(OCc2cccc(NC(=O)CCCC(=O)OC(C)(C)C)c2)c(Cl)cc1C(=O)O[C@H]1[C@@H](OC)O[C@H](CO)[C@@H](O)[C@@H]1O [Example 376]
